This is an account of results in patent US6815546B2, “Analogues of camptothecin, their use as medicaments and the pharmaceutical compositions containing them” (Societe de Recherches et d'Applications Scientifiques …, priority 1995, dated 2004).

One experiment relates to Adenocarcinoma HT29 cells from the human colon. Nature of the experiment: Adenocarcinoma HT29 cell proliferation, WST1 (compounds in DMA). As to conditions: 72 hours, final DMA 0.1% (v/v). It counts as cell-based. On the procedure:
c. Adenocarcinoma HT29 cells from the human colon are cultured in a single layer at 37° in a humidified atmosphere containing 95% of air and 5% of CO2, in a modified essential Earle's medium at 4.5 g/l (Gibco, Paisley, United Kingdom); completed with 10% of inactivated foetal calf serum, 2 mM of glutamine, and 50 μg/ml of gentamycin (Gibco, Paisley, United Kingdom).
Approximately 2000 cells are seeded with the culture medium above in the wells of a microplate (96 wells, flat-bottomed) and incubated for 24 hours. Solutions in N,N-dimethyl-acetamide (DMA) of each of the examples of the invention, diluted in the culture medium so that the final concentration of DMA is 0.1% (v/v), are added to the plate cultures in order to obtain final concentration ranges from 1×10^−13 to 1×10^−5 M, and the cells are incubated for 72 hours.
The WST1 staining reagent, (Boehringer Mannheim, Germany) is then added to each well at a final concentration of 9%, and the cells are incubated for 2 hours at 37° C. This stage allows the mitochondrial deshydrogenase of the living cells to convert WST1 orange tetrazolium salt into crimson formazan. The resulting stained solutions are quantified by dual-beam detection ([…]) using a multi-cuvette scanning spectrophotometer.
The results shown in the following table III C) are expressed in terms of inhibitory concentration at 50% (IC50, in nM), accompanied by a confidence interval.
On the technique in general: Formazan colour is commonly taken as a measure of viable cells.
As usually defined, the IC50 is the concentration that gives 50% inhibition. A low value points to greater potency. Consider `CC[C@@]1(O)CC(=O)OCc2c1cc1n(c2=O)Cc2c-1nc1ccccc1c2Cl` [Example 160, (5R)-12-chloro-5-ethyl-5-hydroxy-4,5,13,15-tetrahydro-1H,3H-oxepino[3′,4′:6,7]indolizino[1,2-b]quinoleine-3,15-dione], for which the IC50 was determined as 5.5 nM.

For `CC[C@@]1(O)CC(=O)OCc2c1cc1n(c2=O)Cc2c-1nc1cc(F)ccc1c2CC(C)C` [Example 162, (5R)-5-ethyl-9-fluoro-5-hydroxy-12-isobutyl-4,5,13,15-tetrahydro-1H,3H-oxepino[3′,4′:6,7]indolizino[1,2-b]quinoleine-3,15-dione], it took 12 nM to reach half-maximal inhibition (IC50).

Take `CC[C@@]1(O)CC(=O)OCc2c1cc1n(c2=O)Cc2c-1nc1cc(F)ccc1c2CC(C)(C)C` [Example 163, (5R)-5-ethyl-9-fluoro-5-hydroxy-12-neopentyl-4,5,13,15-tetrahydro-1H,3H-oxepino[3′,4′:6,7]indolizino[1,2-b]quinoleine-3,15-dione]: the IC50 came to 6 nM.

In turn, `CC[C@@]1(O)CC(=O)OCc2c1cc1n(c2=O)Cc2c-1nc1cc(F)ccc1c2-c1cccc(F)c1` [Example 164, (5R)-5-ethyl-9-fluoro-12-(3-fluorophenyl)-5-hydroxy-4,5,13,15-tetrahydro-1H,3H-oxepino[3′,4′:6,7]indolizino[1,2-b]quinoleine-3,15-dione] had an IC50 of 2.7 nM.

With `CC[C@@]1(O)CC(=O)OCc2c1cc1n(c2=O)Cc2c-1nc1cc(F)ccc1c2-c1ccc(C(F)(F)F)cc1` [Example 165, (5R)-5-ethyl-9-fluoro-5-hydroxy-12-(4-trifluoromethylphenyl)-4,5,13,15-tetrahydro-1H,3H-oxepino[3′,4′:6,7]indolizino[1,2-b]quinoleine-3,15-dione], 1.7 nM corresponded to half-maximal inhibition (IC50).

`CC[C@@]1(O)CC(=O)OCc2c1cc1n(c2=O)Cc2c-1nc1cc(F)ccc1c2-c1ccc(OC(F)(F)F)cc1` [Example 166, (5R)-5-ethyl-9-fluoro-5-hydroxy-12-(4-trifluoromethoxyphenyl)-4,5,13,15-tetrahydro-1H,3H-oxepino[3′,4′:6,7]indolizino[1,2-b]quinoleine-3,15-dione] gave a 50% inhibitory concentration (IC50) of 8.9 nM.

`CC[C@@]1(O)CC(=O)OCc2c1cc1n(c2=O)Cc2c-1nc1cc(F)ccc1c2-c1ccc(N(C)C)cc1` [Example 167, (5R)-12-(4-dimethylaminophenyl)-5-ethyl-9-fluoro-5-hydroxy-4,5,13,15-tetrahydro-1H,3H-oxepino[3′,4′:6,7]indolizino [1,2-b]quinoleine-3,15-dione]: the IC50 was 13 nM.

Regarding `CCCc1c2c(nc3cc(F)cc(F)c13)-c1cc3c(c(=O)n1C2)COC(=O)C[C@]3(O)CC` [Example 169, (5R)-5-ethyl-9,11-difluoro-5-hydroxy-12-propyl-4,5,13,15-tetrahydro-1H,3H-oxepino[3′,4′:6,7]indolizino[1,2-b]quinoleine-3,15-dione], half-maximal inhibition (IC50) required 2.3 nM.

`CCOCCc1c2c(nc3cc(F)cc(F)c13)-c1cc3c(c(=O)n1C2)COC(=O)C[C@]3(O)CC` [Example 170, (5R)-12-(2-ethoxyethyl)-5-ethyl-9,11-difluoro-5-hydroxy-4,5,13,15-tetrahydro-1H,3H-oxepino[3′,4′:6,7]indolizino[1,2-b]quinoleine-3,15-dione] yielded an IC50 of 0.85 nM.

For `CC[C@@]1(O)CC(=O)OCc2c1cc1n(c2=O)Cc2cc3c(F)c(F)c(F)cc3nc2-1` [Example 171, (5R)-5-ethyl-9,10,11-trifluoro-5-hydroxy-4,5,13,15-tetrahydro-1H,3H-oxepino[3′,4′:6,7]indolizino[1,2-b]quinoleine-3,15-dione], the IC50 stood at 8.2 nM.

The experiment is the same for the next values; noted with them: Homo sapiens, HT-29, 72 hours, final DMA 0.1% (v/v).
In turn, `CCc1c2c(nc3cc(F)cc(F)c13)-c1cc3c(c(=O)n1C2)COC(=O)C[C@]3(O)CC` [Example 102, (5R)-5,12-diethyl-9,1 1-difluoro-5-hydroxy-4,5,13,15-tetrahydro-1H,3H-oxepino[3′,4′:6,7]indolizino[1,2-b]quinoline-3,15-dione] yielded an IC50 of 8 nM.

Consider `CC[C@@]1(O)CC(=O)OCc2c1cc1n(c2=O)Cc2c-1nc1ccccc1c2CC[Si](C)(C)C` [Example 104, (5R)-5-ethyl-5-hydroxy-12-(2-trimethylsilylethyl)-4,5,13,15-tetrahydro-1H,3H-oxepino[3′,4′:6,7]indolizino[1,2-b]quinoline-3,15-dione], for which the IC50 stood at 8.6 nM.

For the molecule `CCCCc1c2c(nc3cc(F)ccc13)-c1cc3c(c(=O)n1C2)COC(=O)C[C@]3(O)CC` [Example 105, (5R)-12-butyl-5-ethyl-9-fluoro-5-hydroxy-4,5,13,15-tetrahydro-1H,3H-oxepino[3′,4′:6,7]indolizino[1,2-b]quinoline-3,15-dione], the IC50 was found to be 9.5 nM.

Take `CCc1c2c(nc3cc(F)ccc13)-c1cc3c(c(=O)n1C2)COC(=O)C[C@]3(O)CC` [Example 106, (5R)-5,12-diethyl-9-fluoro-5-hydroxy-4,5,13,15-tetrahydro-1H,3H-oxepino[3′,4′:6,7]indolizino[1,2-b]quinoline-3,15-dione]: the IC50 was 3.5 nM.

`CC[C@@]1(O)CC(=O)OCc2c1cc1n(c2=O)Cc2c-1nc1cc(F)ccc1c2-c1ccc(F)cc1` [Example 115, (5R)-5-ethyl-9-fluoro-12-(4-fluorophenyl)-5-hydroxy-4,5,13,15-tetrahydro-1H,3H-oxepino[3′,4′:6,7]indolizino[1,2-b]quinoline-3,15-dione] yielded an IC50 of 0.26 nM.

Regarding `CC[C@@]1(O)CC(=O)OCc2c1cc1n(c2=O)Cc2c-1nc1cc(F)ccc1c2-c1cc(F)cc(F)c1` [Example 117, (5R)-12-(3,5-difluorophenyl)-5-ethyl-9-fluoro-5-hydroxy-4,5,13,15-tetrahydro-1H,3H-oxepino[3′,4′:6,7]indolizino[1,2-b]quinoline-3,15-dione], 0.25 nM corresponded to half-maximal inhibition (IC50).

Regarding `CC[C@@]1(O)CC(=O)OCc2c1cc1n(c2=O)Cc2c-1nc1cc(F)ccc1c2CCc1ccccc1` [Example 140, (5R)-5-ethyl-9-fluoro-5-hydroxy-12-phenethyl-4,5,13,15-tetrahydro-1H,3H-oxepino[3′,4′:6,7]indolizino[1,2-b]quinoline-3,15-dione], the midpoint of inhibition, the IC50, lay at 3.2 nM.
